Reference: PMC9127750, “Structure-based design of CDC42 effector interaction inhibitors for the treatment of cancer” (Cell reports, 2022)
“And” between values parts separate entries of the source, which are not always exact repeats. Equal values may be shown once.

Tested on: WM3248 melanoma cells, 486 antibodies
Assay: Reverse phase protein arrays (RPPA)
Type: cell-based, Human
Excerpt: Pellets were snap frozen in liquid nitrogen and shipped to MD Anderson Cancer Center core RPPA facility for RPPA analysis (Table S5). Three biological replicates for each sample were generated.
Nomenclatures on the RPPA heatmaps: name_of_antibody.species_of_antibody.status_of_antibody. V - antibody validated; C - validation of antibody in progress; Q - antibody nonspecific; E – under evaluation; antibodies raised in M - mouse, G - goat, R - rabbit, or T - rat.

[1] = Norm_20: replicates 1-3 and Average, relative to 0

Structure (SMILES): CN(C)c1cccc(Nc2cc(-c3ccccc3)nc(C3CCNCC3)n2)c1 [ARN22089, N1,N1-dimethyl-N3-(6-phenyl-2-(piperidin-4-yl)pyrimidin-4-yl)benzene-1,3-diamine]
- PEA.15.R.V Average (Norm_20, normalized to Norm_0): 1.052
- PEA.15_pS116.R.V Average (Norm_20, normalized to Norm_0): 0.946
- PERK.R.V Average (Norm_20, normalized to Norm_0): 1.025
- PGM1.R.V Average (Norm_20, normalized to Norm_0): 0.977
- PHGDH.R.C Average (Norm_20, normalized to Norm_0): 1.014
- PHLPP.R.V Average (Norm_20, normalized to Norm_0): 1.227
- PI3K.p85.R.C Average (Norm_20, normalized to Norm_0): 0.845
- PI3K.p110.a.R.C Average (Norm_20, normalized to Norm_0): 0.888
- PI3K.p110.b.M.C Average (Norm_20, normalized to Norm_0): 0.953
- PKA.a.R.V Average (Norm_20, normalized to Norm_0): 0.999
- PKC.a.b.II_pT638_T641.R.V Average (Norm_20, normalized to Norm_0): 0.901
- PKC.b.II_pS660.R.V Average (Norm_20, normalized to Norm_0): 1.030
- PKCa.R.V Average (Norm_20, normalized to Norm_0): 1.322
- PKM2.R.C Average (Norm_20, normalized to Norm_0): 1.001
- PLK1.R.C Average (Norm_20, normalized to Norm_0): 0.902
- PMS2.R.V Average (Norm_20, normalized to Norm_0): 0.963
- PR.R.V Average (Norm_20, normalized to Norm_0): 0.888
- PRAS40.M.C Average (Norm_20, normalized to Norm_0): 1.217
- PRAS40_pT246.R.V Average (Norm_20, normalized to Norm_0): 1.170
- PRC1_pT481.R.C Average (Norm_20, normalized to Norm_0): 1.054
- Patched.R.C Average (Norm_20, normalized to Norm_0): 1.056
- Paxillin.R.C Average (Norm_20, normalized to Norm_0): 0.857
- Pdcd4.R.C Average (Norm_20, normalized to Norm_0): 0.984
- Porin.M.V Average (Norm_20, normalized to Norm_0): 1.080
- p21.R.C Average (Norm_20, normalized to Norm_0): 0.757
- p27.Kip1.R.C Average (Norm_20, normalized to Norm_0): 1.199
- p27_pT157.R.C Average (Norm_20, normalized to Norm_0): 1.392
- p27_pT198.R.V Average (Norm_20, normalized to Norm_0): 1.105
- p38.MAPK.R.V Average (Norm_20, normalized to Norm_0): 0.992
- p38.MAPK._pT180_Y182.R.V Average (Norm_20, normalized to Norm_0): 0.965
- p38.a.M.V Average (Norm_20, normalized to Norm_0): 0.909
- p44.42.MAPK.R.V Average (Norm_20, normalized to Norm_0): 1.224
- p53.R.C Average (Norm_20, normalized to Norm_0): 1.197
- p70.S6K1.R.V Average (Norm_20, normalized to Norm_0): 1.144
- p70.S6K_pT389.R.V Average (Norm_20, normalized to Norm_0): 0.981
- p90RSK_pT573.R.C Average (Norm_20, normalized to Norm_0): 0.937
- PREX1.R.V normalized RPPA signal [1]: 1.049 and 0.907 and 1.063 and 1.006
- PTEN.R.V normalized RPPA signal [1]: 1.227 and 1.032 and 1.101
- PTPN12.R.V normalized RPPA signal [1]: 0.953 and 1.002 and 1.471 and 1.142
- PYGB.R.V normalized RPPA signal [1]: 1.322 and 1.252 and 1.214
- PYGM.M.C normalized RPPA signal [1]: 0.919 and 1.127 and 1.743 and 1.263
- Puma.R.C normalized RPPA signal [1]: 1.011 and 1.199
- Pyk2_pY402.R.C normalized RPPA signal [1]: 1.106 and 1.030 and 0.994
- RBM15.R.V normalized RPPA signal [1]: 1.053 (2×) and 1.142 and 1.083
- RIP3.R.C normalized RPPA signal [1]: 1.022 and 0.957 and 0.979 and 0.986
- RIP.R.C normalized RPPA signal [1]: 0.835 and 1.185 and 1.165 and 1.062
- RPA32.R.V normalized RPPA signal [1]: 1.395 and 1.278 and 1.255
- RPA32_pS4_S8.R.C normalized RPPA signal [1]: 2.064 and 2.369 and 1.687 and 2.040
- RRM1.R.C normalized RPPA signal [1]: 0.973 and 0.832 and 0.977 and 0.927
- RRM2.R.C normalized RPPA signal [1]: 0.797 and 0.718 and 1.114 and 0.876
- RSK1.R.V normalized RPPA signal [1]: 1.025 and 1.192 and 1.102
- RSK.R.C normalized RPPA signal [1]: 0.897 and 1.161
- Rab11.R.C normalized RPPA signal [1]: 0.945 and 1.018
- Rab25.R.V normalized RPPA signal [1]: 1.022 and 0.964 and 0.955 and 0.980
- Rad17_pS645.R.V normalized RPPA signal [1]: 0.978 and 0.844 and 0.971
- Rad23A.R.C normalized RPPA signal [1]: 0.902 and 0.794 and 1.765 and 1.154
- Rad50.R.V normalized RPPA signal [1]: 1.096 and 1.085 and 1.310 and 1.164
- Rad51.R.C normalized RPPA signal [1]: 0.693 and 0.792 and 0.842 and 0.776
- Raptor.R.V normalized RPPA signal [1]: 0.796 and 0.917 and 1.035 and 0.916
- Rb.M.Q normalized RPPA signal [1]: 0.868 and 1.016 and 1.009 and 0.964
- Rb_pS807_S811.R.V normalized RPPA signal [1]: 0.751 and 0.680 and 0.842
- Rheb.M.C normalized RPPA signal [1]: 1.435 and 1.017 and 1.212
- Rictor.R.C normalized RPPA signal [1]: 0.973 and 1.010 and 1.009
- Rictor_pT1135.R.V normalized RPPA signal [1]: 0.917 and 1.033 and 0.998
- S6.M.V normalized RPPA signal [1]: 1.331 and 0.833
- S6_pS235_S236.R.V normalized RPPA signal [1]: 0.159 and 0.167 and 0.469 and 0.265
- S6_pS240_S244.R.V normalized RPPA signal [1]: 0.113 and 0.501 and 0.240
- SCD.M.V normalized RPPA signal [1]: 0.924 and 0.950 and 0.971
- SDHA.R.V normalized RPPA signal [1]: 1.123 and 1.101 and 1.057
- SF2.R.V normalized RPPA signal [1]: 1.010 and 0.957
- SFRP1.R.V normalized RPPA signal [1]: 0.979 and 1.009 and 0.863 and 0.950
- SGK1.R.V normalized RPPA signal [1]: 0.759 and 0.622 and 1.145 and 0.842
- SGK3.R.V normalized RPPA signal [1]: 0.855 and 0.956 and 0.913 and 0.908
- SHP2.R.V normalized RPPA signal [1]: 0.966 and 1.028 and 0.923 and 0.972
- SHP.2_pY542.R.C normalized RPPA signal [1]: 1.218 and 1.287 and 1.191
- SIRPαR.V normalized RPPA signal [1]: 1.172 and 0.832 and 0.694 and 0.900
- SLC1A5.R.C normalized RPPA signal [1]: 1.248 and 1.028 and 1.189 and 1.155
- SOD1.M.V normalized RPPA signal [1]: 0.834
- SOD2.R.V normalized RPPA signal [1]: 1.108 and 1.226 and 0.894 and 1.076
- SOX7.R.V normalized RPPA signal [1]: 1.078 and 1.212 and 1.083 and 1.124
- STING.R.V normalized RPPA signal [1]: 0.848 and 1.021
